{
  "source": "patent US7022484B2",
  "about": "“Methods for treating neuropathological states and neurogenic inflammatory states and methods for identifying compounds useful therein” (Board of Regents, The University of Texas System, priority 2000, dated 2006)",
  "key": {"rat arthritis model [1]": {"tested_on": "rat arthritis model", "test": "Paw withdrawal latency (PWL) to radiant heat in rat kaolin/carrageenan knee joint inflammation model", "assay_type": "in vivo", "description": "All studies followed the guidelines of the Institute Animal Care and Use Committee, in accordance with the guidelines of the National Institutes of Health. All animals were hosted in a room with a constant ambient temperature of 22° C. and 12 hour light/dark cycle with free access to food and water. Eighty-five Sprague-Dawley rats (250–300 grams) total were used in experiments conducted for biochemical, behavioral, and immunocytochemistry studies. […] On Day 2 baseline behavioral testing was followed by infusion of agents for 1.5 hours (pretreatment) prior to induction of knee joint inflammation under brief anesthesia. Behavioral testing was repeated 4 hours after induction of joint inflammation. Anesthetized animals were either transcardially perfused with aldehydes for immunohistochemical studies or fresh, frozen tissues collected for biochemical studies.\nA microdialysis fiber was implanted into the spinal dorsal horn of anesthetized rats (sodium pentobarbital, 50 mg/kg) one day prior to the induction of arthritis according to the procedure of Skilling et al. (J. Neurochem., 51:127–132 (1988)), as described in Sluka et al. (Neurosci. Lett., 145:141–144 (1992)). Briefly, a small midline incision was made in the skin over the T12 vertebral level. The vertebrae were cleared of muscle and two 1 millimeter (mm) holes were drilled in the lateral aspect of both sides of the T12 vertebrae to expose the L4 spinal segment. A microdialysis fiber ([…], 45,000 MW cut-off, Hospal, AN69, Hospal Industrie, Meyzieu, France), was passed transversely across the deep dorsal horn and stabilized with dental cement. The microdialysis fiber was then passed through the holes in the vertebrae and transversely through the dorsal horn of the spinal cord. A 2 mm section of the microdialysis fiber lies in the dorsal horn at the level of L3–4 segment. The tubing was coated with epoxy except for a permeable portion passing through the spinal grey matter. The microdialysis fiber was connected to PE20 tubing (Becton Dickinson and Company, San Mateo, Calif.) which was tunneled under the skin to the nape of the neck. Alternatively as a systemic control for drug administration, the microdialysis fiber was implanted only in the subcutaneous tissue over the back muscle and tunneled to the neck. Artificial cerebrospinal fluid (aCSF) was made as described by Sorkin et al. (J. Neurosci. Methods, 23, 131–138 (1988)) and was infused (5 microliters/minute) for 1.5 hours and then the tube was heat-sealed for use on the following day.\nDose response curves were generated for Genistein with animals receiving Genistein spinally at concentration of 0.2 mM (n=3), 0.5 mM (n=3), 1 mM (n=9), and 2 mM (n=3). Animals received Lavendustin A or B spinally at concentrations of 0.1 mM (n=3), 0.5 mM (n=3), and 1 mM (n=5) as a positive and negative control for Genistein. […] Daidzein was tested at a dose of 1 mM (n=3). […] Eight additional animals received the vehicle, 50% DMSO in aCSF, as a control.\n(§1) An acute inflammatory response restricted to the knee joint can be induced by the injection of 3% kaolin and 3% carrageenan (in sterile saline; 0.1 ml; pH 7.4) into the joint cavity while the animal is briefly anesthetized with sodium methohexital (Brevital, 60 mg/kg, i.p.). Kaolin and carrageenan were obtained from Fisher Scientific, St. Louis, Mo. The knee joint is flexed manually until the rat awakes (approximately 5–10 minutes). In this arthritis model in the awake rat, localized joint swelling, as well as limping and guarding of the limb, are well developed at 4 hours (Sluka et al., Pain, 59, 95–100 (1994)) when behavioral testing begins.\nFifty-five rats were used for behavioral studies. Four hours after induction of the arthritis, the joint is swollen and increased withdrawal responses to radiant heat and spontaneous guarding of the limb were noted. The increased responsiveness to noxious stimuli indicates the presence of secondary hyperalgesia. […]"}, "NMDA currents": {"tested_on": "NMDA currents", "details": "patch clamp studies; cited from earlier work"}, "TNFα": {"tested_on": "TNFα", "test": "TNFα release by ELISA from SW982 synovial cells treated with NMDA and ACPD", "assay_type": "cell-based, human", "details": "24 hours, NMDA (5 mM) and ACPD (5 mM), K252a (100 nM)", "description": "The cultured cell lines used in these studies were the human neuroblastoma clonal line, SHSY5Y, and the human synovial sarcoma clonal line, SW982, both available through the American Tissue Type Culture Collection (item number CRL 2266 and HTB-93, respectively). Cells were grown in Dulbecco's Modification of Eagles Medium (DMEM) without L-glutamine, with 4.5 grams/Liter glucose, and with 10% bovine fetal serum in a tissue culture incubator at 37° C. in a gaseous mixture of O2/CO2. Cells were routinely split as necessary to maintain proper cell density. Cells were removed from plates by adding TRYPSIN/EDTA in Hank's Balanced Salt solution. After cell counts, approximately 10,000 cells were plated per well in a culture dish. For experiments, the cells were plated into 35 mm Petri dishes or 6- or 24-well plates as needed.\nFor detection of released Tumor Necrosis Factor alpha (TNFα) and some western blot experiments, cells were exposed to the two glutamate agonists NMDA (5 mM) and ACPD (5 mM), in the presence or absence of the tyrosine kinase inhibitors Genistein […] or K252a (100 nM). […]\nThe release of the inflammatory mediator and initiator of inflammatory cascades, TNFα was measured by ELISA using a commercially available kit (R&D Quantikine, Catalog Number DTA50) specific for human TNFα. […]"}, "rat arthritis model [2]": {"tested_on": "rat arthritis model", "test": "Knee joint circumference and joint temperature in kaolin/carrageenan knee joint inflammation model", "assay_type": "in vivo", "details": "4 hours after kaolin/carrageenan; spinal pre-treatment", "description": "as §1\nKnee joint circumference is measured in centimeters (cm) with a flexible tape measure around the center of the knee joint while the joint is held in extension as done with patients in the clinical setting as an indication of increases in joint volume. The knee joints of anesthetized rats are measured before (baseline) and four hours following injection of the knee joint with kaolin and carrageenan.\nTemperature readings were documented numerically with a temperature probe after the rat is reanesthetized with sodium pentobarbital (50 mg/kg, i.p.) just prior to perfusion with aldehydes for histological preservation. Comparative temperature differences were made between the baseline temperature and the temperature four hours after induction of inflammation."}},
  "note": "Entries after “also recorded” stand apart in the source; their conditions may differ.",
  "data": [
    {"smiles": "O=c1c(-c2ccc(O)cc2)coc2cc(O)cc(O)c12", "note": "[Genistein, 5,7-Dihydroxy-3-(4-hydroxyphenyl)-4H-1-benzopyran-4-one; 4′,5,7-trihydroxy-isoflavone]", "values": [
      {"measurement": "effect on baseline PWL", "setting": "rat arthritis model [1]; after 1.5 hours infusion, before kaolin/carrageenan", "value": "did not affect baseline PWL"},
      {"measurement": "most effective dose in pre-treatment animals", "setting": "rat arthritis model [1]; concentration inside the microdialysis fiber, spinal administration", "value": 1, "unit": "mM"},
      {"measurement": "PWL decrease induced by knee joint inflammation", "setting": "rat arthritis model [1]; spinal microdialysis pre-treatment 1.5 hours, PWL to radiant heat 4 hours after kaolin/carrageenan", "value": "significantly (p<0.05 versus 4 hours vehicle group) attenuated the PWL decreases; also recorded: significantly attenuates the inflammation-induced decrease in PWL"},
      {"measurement": "development of secondary hyperalgesia", "setting": "rat arthritis model [1]; spinal microdialysis pre-treatment, 4 hours after induction of arthritis", "value": "secondary hyperalgesia did not develop"},
      {"measurement": "effect on NMDA currents", "setting": "NMDA currents", "value": "decreases NMDA currents"},
      {"measurement": "NMDA/ACPD-promoted release of TNFα", "setting": "TNFα", "value": "completely abolished"},
      {"measurement": "joint circumference", "setting": "rat arthritis model [2]", "value": "expected increases"},
      {"measurement": "joint temperature", "setting": "rat arthritis model [2]", "value": "expected increases"}
    ]}
  ]
}
